Reference: ChEMBL document CHEMBL1201862, “PubChem BioAssay data set” (2004)
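Grown in 96-well plates, cells were treated for 48 hours with each compound at five concentrations. Insufficient inhibition: endpoint recorded as highest concentration tested. GI50 marks 50% less growth.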 Active and inactive are the calls of the source. No stated cut-off is given here; in the data, active = GI50 up to about 1.1 µM and inactive = higher.

Experiments:
Assay in all cases: growth of human tumour cells (NCI), 48 h
SF-268 = test system: SF-268
A498 = test system: A498
NCI-H23 = test system: NCI-H23
NCI-H522 = test system: NCI-H522
DMS-273 = test system: DMS-273
SW-620 = test system: SW-620
COLO 205 = test system: COLO 205
Malme-3M = test system: Malme-3M
SF-539 = test system: SF-539
KM-20L2 = test system: KM-20L2
UO-31 = test system: UO-31
SK-OV-3 = test system: SK-OV-3
SNB-75 = test system: SNB-75
UACC-257 = test system: UACC-257
RPMI-8226 = test system: RPMI-8226
OVCAR-3 = test system: OVCAR-3
SF-295 = test system: SF-295
HOP-18 = test system: HOP-18
EKVX = test system: EKVX

| Structure (SMILES) | GI50 (SF-268) | GI50 (A498) | GI50 (NCI-H23) | GI50 (NCI-H522) | GI50 (DMS-273) | GI50 (SW-620) | GI50 (COLO 205) | GI50 (Malme-3M) | GI50 (SF-539) | GI50 (KM-20L2) | GI50 (UO-31) | GI50 (SK-OV-3) | GI50 (SNB-75) | GI50 (UACC-257) | GI50 (RPMI-8226) | GI50 (OVCAR-3) | GI50 (SF-295) | GI50 (HOP-18) | GI50 (EKVX) |
| --- | --- | --- | --- | --- | --- | --- | --- | --- | --- | --- | --- | --- | --- | --- | --- | --- | --- | --- | --- |
| COc1ccc(Cc2nn(C3OC(COC(C)=O)C(OC(C)=O)C(OC(C)=O)C3OC(C)=O)c(=S)n(-c3ccc(OC)cc3)c2=O)cc1 (stereo unspecified) | > 100 µM (inactive) | > 100 µM (inactive) | > 100 µM (inactive) | > 100 µM (inactive) | > 100 µM (inactive) | > 100 µM (inactive) | > 100 µM (inactive) | > 100 µM (inactive) | > 100 µM (inactive) | > 100 µM (inactive) | > 100 µM (inactive) | > 100 µM (inactive) | 43.5 µM (inactive) | > 100 µM (inactive) | > 100 µM (inactive) | > 100 µM (inactive) | > 100 µM (inactive) | > 94 µM (inactive) | > 54.3 µM (inactive) |
| Cc1c2cnccc2c(C)c2c1c1ccccc1n2CC1CO1 (stereo unspecified) | 0.323 µM (active) | 0.247 µM (active) | 0.422 µM (active) | 1.07 µM (active) | 0.638 µM (active) | 0.345 µM (active) | 1.16 µM (inactive) | 1.75 µM (inactive) | 1.21 µM (inactive) | 1.3 µM (inactive) | 1.42 µM (inactive) | 2.53 µM (inactive) | 0.652 µM (active) | 1.75 µM (inactive) | 0.883 µM (active) | 1.57 µM (inactive) | 1.33 µM (inactive) | 1.86 µM (inactive) | 0.687 µM (active) |
| COC(=O)c1cccc(N[C@@H]2c3cc4c(cc3C(c3cc(OC)c(O)c(OC)c3)[C@H]3C(=O)OCC32)OCO4)c1 (stereo partly specified) | 1.4 µM (inactive) | 0.635 µM (active) | 0.63 µM (active) | 1.4 µM (inactive) | 0.362 µM (active) | 1.97 µM (inactive) | 1.33 µM (inactive) | 2.33 µM (inactive) | 0.528 µM (active) | 2.75 µM (inactive) | 0.718 µM (active) | 2.86 µM (inactive) | 1.87 µM (inactive) | 0.659 µM (active) | 1.37 µM (inactive) | 2.07 µM (inactive) | 0.543 µM (active) | 2.62 µM (inactive) | 4.03 µM (inactive) |
| CC(C)[C@](O)(C(=O)OCC1=CCN2CC[C@@H](O)[C@@H]12)[C@H](C)O | > 375 µM (inactive) | > 375 µM (inactive) | > 375 µM (inactive) | 59.4 µM (inactive) | > 375 µM (inactive) | > 237 µM (inactive) | > 375 µM (inactive) | > 375 µM (inactive) | > 375 µM (inactive) | > 375 µM (inactive) | > 375 µM (inactive) | > 375 µM (inactive) | > 375 µM (inactive) | > 375 µM (inactive) | > 375 µM (inactive) | > 375 µM (inactive) | > 375 µM (inactive) | > 375 µM (inactive) | > 375 µM (inactive) |
